How the values were obtained:
[1] = Relative solubility by turbidity in aqueous buffers (pH 1.5, 4.5, 6.8, 7.4); format: physicochemical; settings: for turbidity threshold (L, M, H) 1.4: pH 1.5 buffer (SGF); for turbidity threshold (L, M, H) 4.5: pH 4.5 buffer (SIF); for turbidity threshold (L, M, H) 6.8: pH 6.8 buffer (SIF); for turbidity threshold (L, M, H) 7.4: pH 7.4 buffer (HEPES)
In short: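 2-fold DMSO dilution series from 25 mM stocks were added to SGF (0.5M NaCl, pH 1.5), SIF (0.05M NaH2PO4, pH 4.5/6.8) or HEPES (10 mM, 150 mM NaCl, pH 7.4). Absorbance at 490, 535 and 650 nm; value is the concentration crossing OD 0.01, averaged over wavelengths. Low <31.3 μM, moderate 31.3–250 μM, high >250 μM.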

[2] = test system: A375 melanoma (B-Raf V600E mutation); assay: A375 cell growth inhibition (ATPlite luminescence); format: cell-based; settings: Homo sapiens, A-375, 72 h, A375 cells, incubated 3 days with compound
Method: Compounds are assessed in a variety of cell based assays. For example human cell lines with B-Raf V600E mutation (A375 melanoma, SKMEL3 melanoma, and COLO205 colon adenocarcinoma), as well as tumorigenic cell lines with wild-type B-RAF (SW620 colon adenocarcinoma) or with Ras mutations (SKMEL2 melanoma and IPC298 melanoma). Similar assays may be used to assess additional tumorigenic cell lines with Ras mutations, including, but not limited to, M202, M207, M243, M244, M296, S117, HCT116, HCT15, DLD1, MiaPaCa, A549, NCI-H23, NCI-H460, HOP62, MDA-MB231, Hs-578T, HL60, MOLT-4, and CCRF-CEM.
On day 1, cells are counted, then centrifuged in a conical tube for 5 minutes at 1000 rpm. The supernatant is removed and cells are re-suspended as follows: • SW620 (ATCC catalog #CCL-27): resuspend in Leibovitz's L-15 medium, 2 mM L-glutamine, 10% fetal bovine serum to 6×10^4 cells/mL. • A375 (ATCC catalog #CRL-1619): resuspend in Dulbecco's modified Eagle's medium, 4 mM L-glutamine, 4.5 g/L D-glucose, 10% fetal bovine serum to 6×10^4 cells/mL. • COLO205 (ATCC catalog #CCL-222): resuspend in RPMI 1640, 2 mM L-glutamine, 1.5 g/L sodium bicarbonate, 4.5 g/L D-glucose, 10 mM HEPES, 1.0 mM sodium pyruvate, 10% fetal bovine serum to 6×10^4 cells/mL. • SKMEL2 (ATCC catalog #HTB-68): resuspend in Minimum Eagle essential medium, 2 mM L-glutamine, 1.5 g/L sodium bicarbonate, 0.1 mM non-essential amino acids, 1.0 mM sodium pyruvate, 10% fetal bovine serum to 6×10^4 cells/mL. • SKMEL3 (ATCC catalog #HTB-69): resuspend in McCoy's 5A medium, 1.5 mM L-glutamine, 15% fetal bovine serum to 6×10^4 cells/mL. • IPC298 (DSMZ catalog #ACC 251): resuspend in RPMI 1640, 2 mM L-glutamine, 10% fetal bovine serum to 6×10^4 cells/mL.
The cells are plated, 50 μL in each well of a 96-well dish (Corning 3610) and incubated at 37° C. in 5% CO2 overnight, cells plated to a final concentration of cells as follows:
On day 2, compound at a maximum concentration of 5 mM is serially diluted 1:3 (e.g. 10 μL with 30 μL dimethyl sulfoxide) for a total of 8 point titration with DMSO as a control. A 1 μL aliquot of each dilution point and control is added to 249 μL growth media and 50 μL is added to a well containing cells, providing 10 μM compound at the maximum concentration point. The cells are incubated for 3 days at 37° C. in 5% CO2.
On day 5, ATPlite 1 step Luminescence Assay System (Perkin Elmer #6016739) is brought to room temperature along with the cell cultures. ATPlite is added 25 μL to each well, shake for 2 minutes, and the cells are incubated at room temperature for 10 minutes, then luminescence is read on Safire reader. The measured luminescence correlates directly with cell number, such that the reading as a function of compound concentration is used to determine the IC50 value.
It is understood that the results of these assays may vary as assay conditions are varied. Inhibition levels determined under the conditions described herein represent a relative activity for the compounds tested under the specific conditions employed. The cell based assays are likely to show variability due to the complexity of the system and the sensitivity thereof to any changes in the assay conditions. […] Results for compounds that are tested and show substantially no inhibition below the highest tested concentration are represented as “-” in the tables below. In some instances, the compounds were not tested in all of the assays, or assay results were not valid, as indicated by NA in the tables below.

SMILES | IC50 [2] [µM] | turbidity threshold (L, M, H) 1.4 [1] | turbidity threshold (L, M, H) 4.5 [1] | turbidity threshold (L, M, H) 6.8 [1] | turbidity threshold (L, M, H) 7.4 [1]
Cc1ncc(-c2cnc3[nH]cc(C(=O)c4c(F)ccc(NS(=O)(=O)c5cc(F)ccc5F)c4F)c3c2)cn1 [P-1503, N-{2,4-Difluoro-3-[5-(2-methyl-pyrimidin-5-yl)-1H-pyrrolo[2,3-b]pyridine-3-carbonyl]-phenyl}-2,5-difluoro-benzenesulfonamide] | – | L (low solubility if the threshold concentration is <31.3 μM) | L (low solubility if the threshold concentration is <31.3 μM) | L (low solubility if the threshold concentration is <31.3 μM) | M (moderate solubility if the threshold concentration is 31.3 μM to 250 μM)
Cc1ccc(-c2cnc3[nH]cc(C(=O)c4c(F)ccc(NS(=O)(=O)c5cc(F)ccc5F)c4F)c3c2)cn1 [P-1408, N-{2,4-Difluoro-3-[5-(6-methyl-pyridin-3-yl)-1H-pyrrolo[2,3-b]pyridine-3-carbonyl]-phenyl}-2,5-difluoro-benzenesulfonamide] | – | M (moderate solubility if the threshold concentration is 31.3 μM to 250 μM) | L (low solubility if the threshold concentration is <31.3 μM) | L (low solubility if the threshold concentration is <31.3 μM) | L (low solubility if the threshold concentration is <31.3 μM)
CCCS(=O)(=O)Nc1ccc(F)c(C(=O)c2c[nH]c3ncc(-c4cnn(C5CCNCC5)c4)cc23)c1F [P-1002, Propane-1-sulfonic acid {2,4-difluoro-3-[5-(1-piperidin-4-yl-1H-pyrazol-4-yl)-1H-pyrrolo[2,3-b]pyridine-3-carbonyl]-phenyl}-amide] | – | M (moderate solubility if the threshold concentration is 31.3 μM to 250 μM) | M (moderate solubility if the threshold concentration is 31.3 μM to 250 μM) | L (low solubility if the threshold concentration is <31.3 μM) | M (moderate solubility if the threshold concentration is 31.3 μM to 250 μM)
CCCS(=O)(=O)Nc1ccc(F)c(C(=O)c2c[nH]c3ncc(-c4csc(-n5ccnc5C)n4)cc23)c1F [P-1101, Propane-1-sulfonic acid (2,4-difluoro-3-{5-[2-(2-methyl-imidazol-1-yl)-thiazol-4-yl]-1H-pyrrolo[2,3-b]pyridine-3-carbonyl}-phenyl)-amide] | < 1 | – | – | – | –
CNC(=O)n1ncc2cc(-c3cnc4[nH]cc(C(=O)c5c(F)ccc(NS(=O)(=O)c6cc(F)ccc6F)c5F)c4c3)ccc21 [P-0003, 5-{3-[3-(2,5-Difluoro-benzenesulfonylamino)-2,6-difluoro-benzoyl]-1H-pyrrolo[2,3-b]pyridin-5-yl}-indazole-1-carboxylic acid methylamide] | < 1 | – | – | – | –
CCCS(=O)(=O)Nc1ccc(F)c(C(=O)c2c[nH]c3ncc(-c4cccc5nn(C)cc45)cc23)c1F [P-0015, Propane-1-sulfonic acid {2,4-difluoro-3-[5-(2-methyl-2H-indazol-4-yl)-1H-pyrrolo[2,3-b]pyridine-3-carbonyl]-phenyl}-amide] | < 1 | L (low solubility if the threshold concentration is <31.3 μM) | L (low solubility if the threshold concentration is <31.3 μM) | L (low solubility if the threshold concentration is <31.3 μM) | L (low solubility if the threshold concentration is <31.3 μM)
O=C(c1c(F)ccc(NS(=O)(=O)c2ccc(C(F)(F)F)cc2)c1F)c1c[nH]c2ncc(-c3cnn(C4CCNCC4)c3)cc12 [P-1004, N-{2,4-Difluoro-3-[5-(1-piperidin-4-yl-1H-pyrazol-4-yl)-1H-pyrrolo[2,3-b]pyridine-3-carbonyl]-phenyl}-4-trifluoromethyl-benzenesulfonamide] | – | L (low solubility if the threshold concentration is <31.3 μM) | L (low solubility if the threshold concentration is <31.3 μM) | L (low solubility if the threshold concentration is <31.3 μM) | L (low solubility if the threshold concentration is <31.3 μM)

Continued, in another order:

IC50 [2] [µM] | SMILES | turbidity threshold (L, M, H) 1.4 [1] | turbidity threshold (L, M, H) 4.5 [1] | turbidity threshold (L, M, H) 6.8 [1] | turbidity threshold (L, M, H) 7.4 [1]
< 1 | CCCS(=O)(=O)Nc1ccc(F)c(C(=O)c2c[nH]c3ncc(-c4ccc5[nH]ncc5c4)cc23)c1F [P-0001, propane-1-sulfonic acid {2,4-difluoro-3-[5-(1H-indazol-5-yl)-1H-pyrrolo[2,3-b]pyridine-3-carbonyl]-phenyl}-amide] | – | – | – | –
> 1 | CCCS(=O)(=O)Nc1ccc(F)c(C(=O)c2c[nH]c3ncc(-c4ccc5c(cnn5C(C)=O)c4)cc23)c1F [P-0007, propane-1-sulfonic acid {3-[5-(1-acetyl-1H-indazol-5-yl)-1H-pyrrolo[2,3-b]pyridine-3-carbonyl]-2,4-difluoro-phenyl}-amide] | – | – | – | –
< 1 | CCCS(=O)(=O)Nc1ccc(F)c(C(=O)c2c[nH]c3ncc(-c4ccc5[nH]ccc5c4)cc23)c1F [P-0012, Propane-1-sulfonic acid {2,4-difluoro-3-[5-(1H-indol-5-yl)-1H-pyrrolo[2,3-b]pyridine-3-carbonyl]-phenyl}-amide] | L (low solubility if the threshold concentration is <31.3 μM) | L (low solubility if the threshold concentration is <31.3 μM) | L (low solubility if the threshold concentration is <31.3 μM) | L (low solubility if the threshold concentration is <31.3 μM)
< 1 | CCCS(=O)(=O)Nc1ccc(F)c(C(=O)c2c[nH]c3ncc(-c4ccc5cn(C)nc5c4)cc23)c1F [P-0011, Propane-1-sulfonic acid {2,4-difluoro-3-[5-(2-methyl-2H-indazol-6-yl)-1H-pyrrolo[2,3-b]pyridine-3-carbonyl]-phenyl}-amide] | L (low solubility if the threshold concentration is <31.3 μM) | L (low solubility if the threshold concentration is <31.3 μM) | M (moderate solubility if the threshold concentration is 31.3 μM to 250 μM) | L (low solubility if the threshold concentration is <31.3 μM)
< 1 | CCCS(=O)(=O)Nc1ccc(F)c(C(=O)c2c[nH]c3ncc(-c4ccc5nn(C)cc5c4)cc23)c1F [P-0010, Propane-1-sulfonic acid {2,4-difluoro-3-[5-(2-methyl-2H-indazol-5-yl)-1H-pyrrolo[2,3-b]pyridine-3-carbonyl]-phenyl}-amide] | L (low solubility if the threshold concentration is <31.3 μM) | L (low solubility if the threshold concentration is <31.3 μM) | L (low solubility if the threshold concentration is <31.3 μM) | L (low solubility if the threshold concentration is <31.3 μM)
